# In patent US8354417B2, “Solid forms comprising 3-(2,5-dimethyl-4-oxo-4H-quinazolin-3-yl)-piperidine-2,6-dione, compositions comprising the same, and methods of using the same” (Celgene Corporation, priority 2007, dated 2013):
# Entries after “also recorded” stand apart in the source; their conditions may differ.
# Columns and labels:
# [1] = Compression testing, 2,000 psi for approximately 1 minute (XRPD); assay type: physicochemical; conditions: 2,000 psi pressure
# Protocol: The stability of Form A was further investigated using compression testing. Compression testing of Form A was carried out by applying 2,000 psi pressure to a sample of Form A for approximately 1 minute, followed by analysis for stability using X-ray powder diffraction.
# The stability of Form B was further investigated using compression testing. Compression testing of Form B was carried out by applying 2,000 psi pressure to a sample of Form B for approximately 1 minute, followed by analysis for stability using X-ray powder diffraction.
# (§1) X-ray powder diffraction (XRPD) analysis was conducted using a Thermo ARL X'TRA X-ray powder diffractometer using CuKα radiation at 1.54 Å. The instrument was equipped with a fine focus X-ray tube. The voltage and amperage of the X-ray generator were set at 45 kV and 40 mA, and the measuring slits were set at 0.5 mm and 0.2 mm. Diffracted radiation was measured using a Peltier-cooled Si (Li) solid-state detector. A theta-two theta continuous scan at 2.40°/min (0.5 sec/0.02° step) from 1.5°2θ to 40°2θ was used. A sintered alumina standard was used as a reference.
# [2] = Stability of slurry in solvents at 40° C. for four weeks; assay type: physicochemical
# Protocol: The stability of Form A was further investigated by storing a slurry of Form A in each of the following solvents at 40° C. for four weeks: acetone; acetonitrile; ethanol; heptane; 2-propanol; methyl t-butyl ether; methanol; water; and ethanol/water (1/1). The Form A material was stable in acetone; acetonitrile; ethanol; heptane; 2-propanol; methyl t-butyl ether; and methanol.
# The stability of Form B was further investigated by storing a slurry of Form B in the following solvents at 40° C. for four weeks: acetone; acetonitrile; ethanol; heptane; 2-propanol; methyl t-butyl ether; methanol; water; and ethanol/water (1/1). The Form B material was stable in heptane; methyl t-butyl ether; water; and ethanol/water (1/1).
# [3] = Slurry equilibration in solvents at 25° C. or 50° C.; assay type: physicochemical; conditions: ethyl acetate, heptane, methyl t-butyl ether, toluene
# Protocol: Form A was prepared via crystallization of 3-(2,5-dimethyl-4-oxo-4H-quinazolin-3-yl)-piperidine-2,6-dione in several organic solvent systems. Slurry crystallizations were performed by adding an excess of solid 3-(2,5-dimethyl-4-oxo-4H-quinazolin-3-yl)-piperidine-2,6-dione to 2 ml of the desired solvent system, then agitating the resulting mixture for a minimum of 24 hours at a controlled temperature. Upon reaching equilibrium, the solids were filtered, air-dried and characterized. Form A was prepared by slurry crystallization of Form B in each of the following solvents at 25° C.: acetone; acetonitrile; n-butanol; ethanol; methanol; methyl ethyl ketone; 2-propanol; and tetrahydrofuran.
# Form B was prepared via crystallization of 3-(2,5-dimethyl-4-oxo-4H-quinazolin-3-yl)-piperidine-2,6-dione in several organic and aqueous solvent systems, including dimethylsulfoxide/water. Slurry crystallizations were performed by adding an excess of solid 3-(2,5-dimethyl-4-oxo-4H-quinazolin-3-yl)-piperidine-2,6-dione to 2 ml of the desired solvent system, then agitating the resulting mixture for a minimum of 24 hours at a controlled temperature. Upon reaching equilibrium, the solids were filtered, air-dried and characterized. Form B was prepared by slurry crystallization of Form A in the following solvents at both 25° C. and 50° C.: water; and ethanol/water (1/1).
# [4] = Moisture sorption/desorption by Dynamic Vapor Sorption (DVS); assay type: physicochemical; conditions: for Mass change relative to the dry mass: DVS, RH increased from 0% to 95% RH (25° C. per general method); for Weight at the end of the desorption cycle: RH decreased from 95% RH to 0% RH; for XRPD diffractogram after completion of the adsorption/desorption cycle: after full DVS cycle 0% - 95% - 0% RH; for Hygroscopicity: conclusion from moisture sorption test
# Protocol: The moisture sorption/desorption behavior of Form A was investigated by Dynamic Vapor Sorption (DVS).
# The moisture sorption/desorption behavior of Form B was investigated by Dynamic Vapor Sorption (DVS).
# Hygroscopicity was determined using a Surface Measurement Systems DVS instrument. Typically, a sample size of 10-50 mg was loaded into the DVS instrument sample pan and the sample was analyzed on a DVS automated sorption analyzer at 25° C. The relative humidity (RH) was increased from 0% RH to 95% RH. The RH was then decreased in a similar manner to accomplish a full adsorption/desorption cycle.
# [5] = as above; assay type: physicochemical; conditions: isothermic approximately 23.3° C.; for Mass increase in moisture sorption test: approximately 0% RH to approximately 50% RH (FIG. 5 / FIG. 10); for Total mass increase in moisture sorption test: approximately 0% RH to approximately 95% RH (FIG. 5 / FIG. 10)
# [6] = Stability on exposure to 40° C./75% RH for four weeks (XRPD); assay type: physicochemical; conditions: 40° C./75% RH environment
# Protocol: The stability of Form A was investigated by exposing a sample of Form A to a 40° C./75% RH environment for four weeks.
# The stability of Form B was investigated by exposing a sample of Form B to a 40° C./75% RH environment for four weeks.
# as §1
# [7] = Approximate measured solubility in solvents at 25° C.; assay type: physicochemical; conditions: at least 24 hours; for solubility: 25 °C, thermodynamic from solid
# Protocol: The solubility of Form A was investigated in a number of solvents at ambient conditions. Solubility measurements were obtained by adding solvent (either HPLC grade or reagent grade) to a carefully weighed (approximately 100 mg) sample of Form A. The resulting mixture was agitated for at least 24 hours at 25° C. The solubility was estimated based on the total volume of solvent required to give a complete solution. In addition, a known volume of filtrate was evaporated to dryness and the weight of the residue was measured.
# The solubility of Form B was investigated in a number of solvents at ambient conditions. Solubility measurements were obtained by adding solvent (either HPLC grade or reagent grade) to a carefully weighed (approximately 100 mg) sample of Form B. The resulting mixture was agitated for at least 24 hours at 25° C. The solubility was estimated based on the total volume of solvent required to give a complete solution. In addition, a known volume of filtrate was evaporated to dryness and the weight of the residue was measured.
structure (smiles),measurement,setting,value
"Cc1cccc2nc(C)n(C3CCC(=O)NC3=O)c(=O)c12 (single isomer, unassigned) [Form A, 3-(2,5-dimethyl-4-oxo-4H-quinazolin-3-yl)-piperidine-2,6-dione]",Physical stability upon compression by X-ray powder diffraction,[1],substantially unchanged; also recorded: physically stable
same,melting point,,292 to 294 °C
same,Stability of slurry,"[2]; acetone, acetonitrile, ethanol, heptane, 2-propanol, methyl t-butyl ether, methanol",stable
same,Stability of slurry,[2]; water and ethanol/water (1/1),converted into the Form B crystal form
same,Stability when slurried,"[3]; 25° C., acetone, acetonitrile, n-butanol, ethanol, methanol, methylene chloride, methyl ethyl ketone, 2-propanol, tetrahydrofuran",stable
same,Stability when slurried,"[3]; 50° C., acetone, acetonitrile, n-butanol, ethanol, methanol, methyl ethyl ketone, 2-propanol, tetrahydrofuran",stable
same,Mass change relative to the dry mass,[4],0.7%
same,Weight at the end of the desorption cycle,[4],lost all of the weight it had gained; also recorded: loses approximately all of the adsorbed moisture
same,XRPD diffractogram after completion of the adsorption/desorption cycle,[4],substantially unchanged
same,Hygroscopicity,[4],substantially non-hygroscopic
same,Mass increase in moisture sorption test,[5],approximately 1%
same,Total mass increase in moisture sorption test,[5],approximately 4%
same,Physical stability of the solid form by X-ray powder diffraction,[6],substantially unchanged; also recorded: physically stable
same,solubility,"[7]; 2-propanol, organic solvent or mixture",210 µg/mL
same,solubility,"[7]; absolute ethanol, organic solvent or mixture",500 µg/mL
same,solubility,"[7]; acetone, organic solvent or mixture",2070 µg/mL
same,solubility,"[7]; acetonitrile, organic solvent or mixture",1490 µg/mL
same,solubility,"[7]; ethanol/water (1/1), aqueous with cosolvent or surfactant or cyclodextrin",180 µg/mL
same,solubility,"[7]; ethyl acetate, organic solvent or mixture",670 µg/mL
same,solubility,"[7]; heptane, organic solvent or mixture",430 µg/mL
same,solubility,"[7]; methanol, organic solvent or mixture",1280 µg/mL
same,solubility,"[7]; methyl ethyl ketone, organic solvent or mixture",1390 µg/mL
same,solubility,"[7]; methyl t-butyl ether, organic solvent or mixture",420 µg/mL
same,solubility,"[7]; methylene chloride, organic solvent or mixture",2120 µg/mL
same,solubility,"[7]; n-butanol, organic solvent or mixture",230 µg/mL
same,solubility,"[7]; tetrahydrofuran, organic solvent or mixture",4570 µg/mL
same,solubility,"[7]; toluene, organic solvent or mixture",320 µg/mL
same,solubility,[7]; water,170 µg/mL
"Cc1cccc2nc(C)n(C3CCC(=O)NC3=O)c(=O)c12 (single isomer, unassigned) [Form B, 3-(2,5-dimethyl-4-oxo-4H-quinazolin-3-yl)-piperidine-2,6-dione]",Physical stability upon compression by X-ray powder diffraction,[1],substantially unchanged; also recorded: physically stable
same,Stability of slurry,[2]; 2-propanol,converted to a mixture of Forms A and B
same,Stability of slurry,"[2]; acetone, acetonitrile, ethanol and methanol",converted into the Form A crystal form
same,Stability of slurry,"[2]; heptane, methyl t-butyl ether, water, ethanol/water (1/1)",stable
same,Stability when slurried,"[3]; 25° C., methylene chloride, water, ethanol/water (1/1)",stable
same,Mass change relative to the dry mass,[4],2.9%
same,Weight at the end of the desorption cycle,[4],lost all of the weight it had gained; also recorded: loses approximately all of the adsorbed moisture
same,XRPD diffractogram after completion of the adsorption/desorption cycle,[4],substantially unchanged
same,Hygroscopicity,[4],substantially non-hygroscopic
same,Mass increase in moisture sorption test,[5],approximately 1.5%
same,Total mass increase in moisture sorption test,[5],approximately 3%
same,Physical stability of the solid form by X-ray powder diffraction,[6],substantially unchanged; also recorded: physically stable
same,Approximate Solubility,[7]; 2-Propanol,350 µg/mL
same,Approximate Solubility,[7]; Absolute ethanol,500 µg/mL
same,Approximate Solubility,[7]; Acetone,2560 µg/mL
same,Approximate Solubility,[7]; Acetonitrile,1400 µg/mL
same,Approximate Solubility,[7]; Ethanol/Water (1/1),280 µg/mL
same,Approximate Solubility,[7]; Ethyl acetate,1160 µg/mL
same,Approximate Solubility,[7]; Heptane,440 µg/mL
same,Approximate Solubility,[7]; Methanol,1310 µg/mL
same,Approximate Solubility,[7]; Methyl ethyl ketone,1570 µg/mL
same,Approximate Solubility,[7]; Methyl t-butyl ether,430 µg/mL
same,Approximate Solubility,[7]; Methylene chloride,1630 µg/mL
same,Approximate Solubility,[7]; Tetrahydrofuran,4710 µg/mL
same,Approximate Solubility,[7]; Toluene,200 µg/mL
same,Approximate Solubility,[7]; Water,100 µg/mL
same,Approximate Solubility,[7]; n-Butanol,340 µg/mL
